Test results taken from the kinase profiling compilation of Christmann-Franck et al. (2016).

Assays:
Test in all cases: radiometric filter-binding kinase assay
[1] = biological target: PKN2 (human) (UniProt Q16513)
[2] = biological target: MAP3K9 (human) (UniProt P80192)
[3] = biological target: GCK (human) (UniProt Q12851)
[4] = biological target: TBK1 (human) (UniProt Q9UHD2)
[5] = biological target: TTK (human) (UniProt P33981)
[6] = biological target: EEF2K (human) (UniProt O00418)
[7] = biological target: SRPK1 (human) (UniProt Q96SB4)
[8] = biological target: CSNK2A1 (human) (UniProt P68400)
[9] = biological target: EPHB4 (human) (UniProt P54760)
[10] = biological target: IKBKB (human) (UniProt O14920)
[11] = biological target: EPHB1 (human) (UniProt P54762)
[12] = biological target: YES1 (human) (UniProt P07947)
[13] = test system: RPS6KB1 (human), P23443 [T412E]
[14] = biological target: MAP2K1 (human) (UniProt Q02750)
[15] = biological target: MYLK (human) (UniProt Q15746)
[16] = biological target: MARK3 (human) (UniProt P27448)
[17] = biological target: RPS6KA5 KD1 KD2 (human) (UniProt O75582)
Chain of RPS6KA5 KD1 KD2 (human) (O75582 whole entry, looked up): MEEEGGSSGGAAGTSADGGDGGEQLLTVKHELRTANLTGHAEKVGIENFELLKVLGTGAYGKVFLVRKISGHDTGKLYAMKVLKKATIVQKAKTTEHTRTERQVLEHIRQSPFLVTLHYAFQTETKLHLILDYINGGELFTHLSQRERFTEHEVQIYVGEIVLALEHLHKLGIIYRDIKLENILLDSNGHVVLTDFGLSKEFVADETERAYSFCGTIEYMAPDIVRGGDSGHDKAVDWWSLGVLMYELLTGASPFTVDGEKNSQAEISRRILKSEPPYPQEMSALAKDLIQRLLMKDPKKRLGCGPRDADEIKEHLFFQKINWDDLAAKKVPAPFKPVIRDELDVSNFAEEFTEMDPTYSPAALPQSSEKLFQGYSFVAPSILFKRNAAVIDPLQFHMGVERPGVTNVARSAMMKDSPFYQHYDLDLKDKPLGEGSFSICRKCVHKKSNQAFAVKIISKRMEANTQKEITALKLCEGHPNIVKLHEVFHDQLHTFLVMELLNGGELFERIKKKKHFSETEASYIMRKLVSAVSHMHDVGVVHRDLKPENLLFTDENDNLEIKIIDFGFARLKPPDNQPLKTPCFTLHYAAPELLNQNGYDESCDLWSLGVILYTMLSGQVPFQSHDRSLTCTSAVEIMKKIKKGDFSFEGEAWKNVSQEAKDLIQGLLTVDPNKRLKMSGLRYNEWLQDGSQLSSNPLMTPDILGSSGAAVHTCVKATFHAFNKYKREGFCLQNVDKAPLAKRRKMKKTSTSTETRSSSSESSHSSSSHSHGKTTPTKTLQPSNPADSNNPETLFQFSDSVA

[18] = biological target: MAP2K2 (human) (UniProt P36507)
[19] = biological target: DAPK1 (human) (UniProt P53355)
Chain of DAPK1 (human) (P53355 whole entry, looked up): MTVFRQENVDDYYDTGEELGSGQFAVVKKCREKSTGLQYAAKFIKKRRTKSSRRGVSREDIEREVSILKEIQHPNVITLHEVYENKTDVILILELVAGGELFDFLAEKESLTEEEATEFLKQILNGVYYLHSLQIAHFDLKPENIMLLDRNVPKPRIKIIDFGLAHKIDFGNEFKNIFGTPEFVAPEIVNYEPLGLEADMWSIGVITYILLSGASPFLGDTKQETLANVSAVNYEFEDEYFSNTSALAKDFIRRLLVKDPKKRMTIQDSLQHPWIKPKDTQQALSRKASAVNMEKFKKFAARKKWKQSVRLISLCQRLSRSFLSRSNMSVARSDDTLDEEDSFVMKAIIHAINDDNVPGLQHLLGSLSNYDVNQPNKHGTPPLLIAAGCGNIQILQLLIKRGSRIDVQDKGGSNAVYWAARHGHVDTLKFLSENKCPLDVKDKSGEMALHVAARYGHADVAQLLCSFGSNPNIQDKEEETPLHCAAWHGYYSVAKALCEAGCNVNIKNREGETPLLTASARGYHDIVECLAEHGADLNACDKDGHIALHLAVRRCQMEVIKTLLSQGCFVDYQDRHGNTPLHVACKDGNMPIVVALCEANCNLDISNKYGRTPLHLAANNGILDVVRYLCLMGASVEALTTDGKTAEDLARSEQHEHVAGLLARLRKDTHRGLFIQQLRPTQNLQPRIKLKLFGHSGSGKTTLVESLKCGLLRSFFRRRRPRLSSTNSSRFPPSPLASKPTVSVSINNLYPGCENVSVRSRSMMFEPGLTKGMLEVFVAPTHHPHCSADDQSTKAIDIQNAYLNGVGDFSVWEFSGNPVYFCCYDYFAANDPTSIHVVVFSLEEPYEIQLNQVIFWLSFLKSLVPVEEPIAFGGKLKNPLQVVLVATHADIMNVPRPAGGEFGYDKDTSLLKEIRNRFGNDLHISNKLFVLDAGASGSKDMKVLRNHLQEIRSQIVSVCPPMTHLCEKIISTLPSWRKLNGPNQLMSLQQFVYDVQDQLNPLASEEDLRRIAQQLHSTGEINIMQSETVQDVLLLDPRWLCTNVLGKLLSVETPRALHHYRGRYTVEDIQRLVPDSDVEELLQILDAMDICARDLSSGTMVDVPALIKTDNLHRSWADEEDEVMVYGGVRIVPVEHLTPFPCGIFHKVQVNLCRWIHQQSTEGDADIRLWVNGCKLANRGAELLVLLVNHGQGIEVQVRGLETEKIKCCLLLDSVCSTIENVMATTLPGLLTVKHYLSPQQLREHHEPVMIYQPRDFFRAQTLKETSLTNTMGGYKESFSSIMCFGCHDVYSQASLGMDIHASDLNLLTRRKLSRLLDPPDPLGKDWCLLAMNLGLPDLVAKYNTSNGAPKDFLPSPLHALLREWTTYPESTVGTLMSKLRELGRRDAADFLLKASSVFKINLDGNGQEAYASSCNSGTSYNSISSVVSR

[20] = biological target: EPHA4 (human) (UniProt P54764)
[21] = biological target: PIM2 (human) (UniProt Q9P1W9)
Chain of PIM2 (human) (Q9P1W9 whole entry, looked up): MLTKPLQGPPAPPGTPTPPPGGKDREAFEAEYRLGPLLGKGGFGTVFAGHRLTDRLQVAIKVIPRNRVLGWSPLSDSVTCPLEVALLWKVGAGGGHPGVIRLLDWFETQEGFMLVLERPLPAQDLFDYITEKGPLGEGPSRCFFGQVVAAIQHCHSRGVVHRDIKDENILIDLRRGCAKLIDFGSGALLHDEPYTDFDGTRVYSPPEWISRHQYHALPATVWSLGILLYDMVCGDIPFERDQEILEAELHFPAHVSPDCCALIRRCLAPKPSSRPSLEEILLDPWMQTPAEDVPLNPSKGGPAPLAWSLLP

[22] = biological target: INSRR (human) (UniProt P14616)
[23] = biological target: NEK6 (human) (UniProt Q9HC98)
[24] = biological target: CHEK1 (human) (UniProt O14757)
[25] = biological target: MAPKAPK2 (human) (UniProt P49137)
[26] = biological target: PIM3 (human) (UniProt Q86V86)
[27] = biological target: STK3 (human) (UniProt Q13188)
[28] = biological target: PIM1 (human) (UniProt P11309)
[29] = test system: PAK2 (human), Q13177 [T402E]
[30] = biological target: MARK4 (human) (UniProt Q96L34)
[31] = biological target: CDK2 CCNA2 (human) (UniProt P20248+P24941)
[32] = biological target: MAP3K5 (human) (UniProt Q99683)
[33] = biological target: BTK (human) (UniProt Q06187)
[34] = biological target: PAK6 (human) (UniProt Q9NQU5)
[35] = biological target: MKNK2 (human) (UniProt Q9HBH9)
Chain of MKNK2 (human) (Q9HBH9 whole entry, looked up): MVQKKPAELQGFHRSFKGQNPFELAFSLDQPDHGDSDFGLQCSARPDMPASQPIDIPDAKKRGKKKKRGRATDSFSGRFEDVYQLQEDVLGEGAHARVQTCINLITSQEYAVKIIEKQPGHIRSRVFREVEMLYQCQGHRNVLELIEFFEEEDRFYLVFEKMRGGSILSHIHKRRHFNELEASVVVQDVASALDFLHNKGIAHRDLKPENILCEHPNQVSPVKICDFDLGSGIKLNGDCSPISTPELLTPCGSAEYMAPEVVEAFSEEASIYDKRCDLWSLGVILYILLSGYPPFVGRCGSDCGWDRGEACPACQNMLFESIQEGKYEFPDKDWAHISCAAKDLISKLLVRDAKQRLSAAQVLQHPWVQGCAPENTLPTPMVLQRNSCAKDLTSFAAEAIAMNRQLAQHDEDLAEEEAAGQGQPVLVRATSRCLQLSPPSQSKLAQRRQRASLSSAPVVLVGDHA

[36] = biological target: MAPK9 (human) (UniProt P45984)
Chain of MAPK9 (human) (P45984 whole entry, looked up): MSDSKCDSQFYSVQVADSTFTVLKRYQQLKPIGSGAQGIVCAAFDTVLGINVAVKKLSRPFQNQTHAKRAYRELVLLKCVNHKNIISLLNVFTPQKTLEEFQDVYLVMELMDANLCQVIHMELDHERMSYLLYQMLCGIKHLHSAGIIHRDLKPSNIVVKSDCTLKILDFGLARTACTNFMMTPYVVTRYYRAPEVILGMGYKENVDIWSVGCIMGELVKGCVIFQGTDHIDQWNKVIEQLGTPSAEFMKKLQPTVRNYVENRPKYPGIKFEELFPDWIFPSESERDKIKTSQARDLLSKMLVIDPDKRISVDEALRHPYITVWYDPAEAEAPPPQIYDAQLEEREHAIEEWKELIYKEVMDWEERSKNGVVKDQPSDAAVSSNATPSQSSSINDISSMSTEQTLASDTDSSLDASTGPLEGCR

Chain of TBK1 (human) (Q9UHD2 whole entry, looked up): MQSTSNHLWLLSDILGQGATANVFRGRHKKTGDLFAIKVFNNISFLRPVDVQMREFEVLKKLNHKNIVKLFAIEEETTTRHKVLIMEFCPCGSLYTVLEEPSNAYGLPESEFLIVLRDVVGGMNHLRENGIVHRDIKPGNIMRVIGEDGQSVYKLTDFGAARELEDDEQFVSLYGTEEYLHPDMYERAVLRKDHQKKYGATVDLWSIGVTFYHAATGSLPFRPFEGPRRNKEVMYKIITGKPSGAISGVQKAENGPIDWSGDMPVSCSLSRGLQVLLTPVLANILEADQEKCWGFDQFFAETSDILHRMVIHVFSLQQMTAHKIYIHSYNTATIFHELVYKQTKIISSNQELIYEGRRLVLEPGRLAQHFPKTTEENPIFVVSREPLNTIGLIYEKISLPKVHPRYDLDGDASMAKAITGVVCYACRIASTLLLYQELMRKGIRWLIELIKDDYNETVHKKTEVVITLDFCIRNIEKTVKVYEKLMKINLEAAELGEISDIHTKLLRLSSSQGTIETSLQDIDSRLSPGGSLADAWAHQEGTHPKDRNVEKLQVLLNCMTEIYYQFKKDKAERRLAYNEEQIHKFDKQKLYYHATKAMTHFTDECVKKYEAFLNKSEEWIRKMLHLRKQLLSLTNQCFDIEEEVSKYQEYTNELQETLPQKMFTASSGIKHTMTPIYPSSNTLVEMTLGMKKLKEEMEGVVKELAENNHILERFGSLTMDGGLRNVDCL
Chain of GCK (human) (Q12851 whole entry, looked up): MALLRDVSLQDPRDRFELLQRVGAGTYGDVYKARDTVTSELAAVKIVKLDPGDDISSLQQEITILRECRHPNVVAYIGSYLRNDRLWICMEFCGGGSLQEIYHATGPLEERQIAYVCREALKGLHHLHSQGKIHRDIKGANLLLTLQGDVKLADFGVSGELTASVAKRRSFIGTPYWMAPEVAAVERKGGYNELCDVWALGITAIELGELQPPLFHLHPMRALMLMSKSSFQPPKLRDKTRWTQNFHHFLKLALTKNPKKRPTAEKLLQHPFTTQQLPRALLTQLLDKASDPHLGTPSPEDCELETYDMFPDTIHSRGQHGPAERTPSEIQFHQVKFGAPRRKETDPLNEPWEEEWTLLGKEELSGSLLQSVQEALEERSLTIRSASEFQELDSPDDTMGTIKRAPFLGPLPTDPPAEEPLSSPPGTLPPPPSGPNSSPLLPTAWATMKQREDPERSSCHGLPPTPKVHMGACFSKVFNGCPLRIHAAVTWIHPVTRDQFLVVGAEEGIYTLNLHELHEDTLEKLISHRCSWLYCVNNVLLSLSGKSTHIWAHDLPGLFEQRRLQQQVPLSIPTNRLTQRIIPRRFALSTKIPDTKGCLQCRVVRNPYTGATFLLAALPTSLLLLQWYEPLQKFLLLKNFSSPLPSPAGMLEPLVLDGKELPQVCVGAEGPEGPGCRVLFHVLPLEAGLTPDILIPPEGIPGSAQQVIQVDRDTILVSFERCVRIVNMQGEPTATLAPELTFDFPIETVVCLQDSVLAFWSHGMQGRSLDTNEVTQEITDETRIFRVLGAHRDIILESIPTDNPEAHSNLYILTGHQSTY

`N#Cc1c(C2CCNCC2)cc(-c2c(O)cccc2OCC2CC2)nc1N` showed a residual activity ([1]; compound 1.0 µM) of 94%, a residual activity ([1]; compound 10.0 µM) of 53% and a residual activity ([2]; compound 1.0 µM) of 73%. For the same compound, the residual activity ([2]; compound 10.0 µM) was 66%, the residual activity ([3]; compound 1.0 µM) was 77% and the residual activity ([3]; compound 10.0 µM) was 41%. For the same compound, the residual activity ([4]; compound 1.0 µM) was 80%, the residual activity ([4]; compound 10.0 µM) was 86% and the residual activity ([5]; compound 1.0 µM) was 89%. The residual activity ([5]; compound 10.0 µM) was 66%, the residual activity ([6]; compound 1.0 µM) was 90% and the residual activity ([6]; compound 10.0 µM) was 56%. The residual activity ([7]; compound 1.0 µM) was 92%, the residual activity ([7]; compound 10.0 µM) was 101% and the residual activity ([8]; compound 1.0 µM) was 91%. The residual activity ([8]; compound 10.0 µM) was 93%, the residual activity ([9]; compound 1.0 µM) was 90% and the residual activity ([9]; compound 10.0 µM) was 86%. The residual activity ([10]; compound 1.0 µM) was 6%, the residual activity ([10]; compound 10.0 µM) was 4% and the residual activity ([11]; compound 1.0 µM) was 96%. It also gave a residual activity ([11]; compound 10.0 µM) of 100%, a residual activity ([12]; compound 1.0 µM) of 79% and a residual activity ([12]; compound 10.0 µM) of 38%. It also gave a residual activity ([13]; compound 1.0 µM) of 88%, a residual activity ([13]; compound 10.0 µM) of 53% and a residual activity ([14]; compound 1.0 µM) of 117%. The residual activity ([14]; compound 10.0 µM) was 51%, the residual activity ([15]; compound 1.0 µM) was 70% and the residual activity ([15]; compound 10.0 µM) was 25%. It also gave a residual activity ([16]; compound 1.0 µM) of 118%, a residual activity ([16]; compound 10.0 µM) of 82% and a residual activity ([17]; compound 1.0 µM) of 105%. The residual activity ([17]; compound 10.0 µM) was 55%, the residual activity ([18]; compound 1.0 µM) was 107% and the residual activity ([18]; compound 10.0 µM) was 77%. The residual activity ([19]; compound 1.0 µM) was 68%, the residual activity ([19]; compound 10.0 µM) was 46% and the residual activity ([20]; compound 1.0 µM) was 107%. For the same compound, the residual activity ([20]; compound 10.0 µM) was 84%, the residual activity ([21]; compound 1.0 µM) was 34% and the residual activity ([21]; compound 10.0 µM) was 12%. It also gave a residual activity ([22]; compound 1.0 µM) of 117%, a residual activity ([22]; compound 10.0 µM) of 61% and a residual activity ([23]; compound 1.0 µM) of 99%. The residual activity ([23]; compound 10.0 µM) was 101%, the residual activity ([24]; compound 1.0 µM) was 95% and the residual activity ([24]; compound 10.0 µM) was 92%. The residual activity ([25]; compound 1.0 µM) was 115%, the residual activity ([25]; compound 10.0 µM) was 95% and the residual activity ([26]; compound 1.0 µM) was 56%. The residual activity ([26]; compound 10.0 µM) was 27%, the residual activity ([27]; compound 1.0 µM) was 83% and the residual activity ([27]; compound 10.0 µM) was 34%. It also gave a residual activity ([28]; compound 1.0 µM) of 63%, a residual activity ([28]; compound 10.0 µM) of 18% and a residual activity ([29]; compound 1.0 µM) of 83%. For the same compound, the residual activity ([29]; compound 10.0 µM) was 78%, the residual activity ([30]; compound 1.0 µM) was 115% and the residual activity ([30]; compound 10.0 µM) was 102%. It also gave a residual activity ([31]; compound 1.0 µM) of 32%, a residual activity ([31]; compound 10.0 µM) of 6% and a residual activity ([32]; compound 1.0 µM) of 102%. It also gave a residual activity ([32]; compound 10.0 µM) of 83%, a residual activity ([33]; compound 1.0 µM) of 122% and a residual activity ([33]; compound 10.0 µM) of 58%. For the same compound, the residual activity ([34]; compound 1.0 µM) was 89%, the residual activity ([34]; compound 10.0 µM) was 83% and the residual activity ([35]; compound 1.0 µM) was 113%. The residual activity ([35]; compound 10.0 µM) was 89%, the residual activity ([36]; compound 1.0 µM) was 83% and the residual activity ([36]; compound 10.0 µM) was 71%.
